The results in this text go back to US20260167654A1, “PLANT CELL WALL-DISSOLVING AGENT” (Kanazawa University, priority 2022, published 2026).

A short description of data set [1]: Viscosity measurement (Brookfield viscometer, CPE52 spindle). It counts as physicochemical. On the procedure:
The viscometer used was Brookfield LVDV2TCP with a CPE52 spindle, or Brookfield RVDV2T with a CPE52 spindle.
C1imC2OE3C obtained in Synthesis Example 1 and OE2imC2OE3C obtained in Synthesis Example 2 were measured for viscosity at 80° C. The viscometer used was Brookfield LVDV2TCP with a CPE52 spindle. The viscometer was heated to 80° C. by passing warm water therethrough, and the viscosity of the samples was measured.

Data set [2] in a line: Cellulose solubility (cellulose added in 1 wt % steps, heating and stirring 1 hour, visual). It counts as physicochemical. On the procedure: The cellulose solubility of C1imC2OE3C obtained in Synthesis Example 1, OE2imC2OE3C obtained in Synthesis Example 2, and OE2imC3C (R^1═H3C(OCH2CH2)2, A=imidazolium cation, B=—COO^−, and n=0 (a compound having no oxyalkylene structure between the cationic and anionic moieties; the compound described in Non-Patent Literature 2)) as a comparative example was measured. […] The concentration at which cellulose dissolution was confirmed was visually measured.
Thus, when heating to 80° C., a stirrer rotated in C1imC2P and started to rotate smoothly at 120° C. Accordingly, a cellulose solubility experiment was performed at 120° C. Avicel was added in increments of 1 wt %, and when dissolved over 1 hour, additional Avicel was added in increments of 1 wt %. As a result of the experiment, C1imC2P dissolved 4 wt % Avicel.

Data set [3] is described as follows: State of the zwitterions at 25° C. Type of data set: physicochemical. As to conditions: room temperature (25° C.). On the procedure:
C1imC2OE3C (R^1═CH3, A=imidazolium cation, R^3═CH2CH2, n=3, and B=—COO^−) obtained in Synthesis Example 1 and OE2imC2OE3C(R^1═H3C(OCH2CH2)2, A=imidazolium cation, R^3═CH2CH2, n=3, and B=—COO^−) obtained in Synthesis Example 2 were both liquid at room temperature (25° C.).

In data set [4] the test system is Kluyveromyces marxianus. The experiment in a line: Toxicity to yeast (OD600 of culture in liquid medium). It counts as cell-based. As to conditions: culturing at 50° C., concentration and time of the value not stated. As to the method:
The toxicity of C1imC2P to yeast was examined. The yeast used was Kluyveromyces marxianus. C1imC2P was added to a liquid medium at concentrations of 0 mol/L, 0.01 mol/L, 0.05 mol/L, 0.1 mol/L, 0.5 mol/L and 1.0 mol/L respectively. This was inoculated with bacteria, and while culturing at 50° C., OD600 was measured with a plate reader 0, 2, 4, and 6 hours later. OD600 indicates the density of bacterial cells. Further, relative OD600 is a relative parameter when the control is 1.00. A higher value of relative OD600 indicates a lower toxicity of the zwitterion. The relative OD600 of C1imC2P was 0.77, indicating low toxicity.

Data set [5] can be described thus: Differential scanning calorimetry. It counts as physicochemical. As to the method:
Experimental method: Under N2 atmosphere, liquid nitrogen was used during cooling. After the temperature was increased at a rate of 10° C./min to 20° C. below the pyrolysis point starting at 25° C., two sets of “cooling to −100° C. at a rate of −10° C./min→heating to 20° C. below the pyrolysis point at a rate of 10° C./min” were repeated (holding time: 5 minutes for each stage), followed by cooling down to 25° C.
C1imC2OE3C obtained in Synthesis Example 1 was subjected to differential scanning calorimetry.

The nature of data set [6]: TG-DTA pyrolysis temperature (weight loss on heating at 10° C./min). Type of data set: physicochemical. On the procedure:
Experimental method: Under N2 atmosphere, the temperature was increased to 500° C. at a rate of 10° C./min starting at room temperature. The pyrolysis point was evaluated at the intersection of the tangent lines between the steady state and the decomposition.
C1imC2OE3C obtained in Synthesis Example 1 was heated at a rate of 10° C./min, and the temperature at which the weight loss occurred (pyrolysis temperature) was measured. As a result, this compound was thermally decomposed at about 249° C. and was stable up to 249° C.

As for `COCCOCCn1cc[n+](CCCC(=O)[O-])c1` [OE2imC3C, reference compound], the “Viscosity at 80° C.” value in data set [1] stood at 940 mPa · s. In addition, the Cellulose solubility is on record as 6 wt % in data set [2] (100° C.) and 10 wt % in data set [2] (120° C.). The “State at 25° C.” value in data set [3] is “solid”.
Turning to `C[n+]1ccn(CCOP(=O)([O-])O)c1` [Zwitterion C1imC2P], the “Viscosity (in words)” value in data set [1] (100 wt % zwitterion, room temperature (25° C.)) is given as “very high viscosity”. For the same compound, the “Cellulose solubility (Avicel dissolved)” value in data set [2] (120° C., Avicel added in increments of 1 wt %, 1 hour each) was found to be 4 wt %. The “relative OD600 (control is 1.00)” value in data set [4] was 0.77. Besides, in data set [3], the “State at 25° C.” value is “liquid”.
For the compound `COCCOCC[n+]1ccn(CCOCCOCCOCCC(=O)[O-])c1` [OE2imC2OE3C], the “Viscosity at 80° C.” value in data set [1] was found to be 810 mPa · s. Also, the Cellulose solubility in data set [2] (100° C.) and in data set [2] (120° C.) was 11 wt % each time. Also, in data set [3], the “State at 25° C.” value was “liquid”.
As to `C[n+]1ccn(CCOCCOCCOCCC(=O)[O-])c1` [Zwitterion C1imC2OE3C], in data set [1], the “Viscosity at 80° C.” value is 2,500 mPa · s. For the same compound, the “did not change / in a liquid state from room temperature up to temperature” value in data set [5] was “around 250 °C”. Further, the “stable (does not decompose) up to temperature” value in data set [6] is “up to 249 °C”. Further, the “pyrolysis temperature (temperature at which the weight loss occurred)” value in data set [6] (heated at a rate of 10° C./min) was “about 249 °C”. Besides, the Cellulose solubility in data set [2] (100° C.) worked out at 11 wt %; in data set [2] (120° C.), 14 wt %. The “State at 25° C.” value in data set [3] was “liquid”.
